What all share (assay type): physicochemical
Data set [1] is described as follows: Aqueous solubility: slurries in deionised water, HPLC. To be noted: slurry in deionised water shaken ca. 24 hours; for aqueous solubility: assessment in words. Here is the method: Slurries of all each polymorphic form were created in deionised water and shaken for ca. 24 hours. The resulting solid was then analysed by HPLC to determine the concentration of material dissolved.

Data set [2] is described as follows: Dynamic vapour sorption (DVS) with post DVS XRPD. To be noted: for DVS water uptake: between 20 and 70% RH. Here is the method:
For dynamic vapour sorption (DVS), approximately 10 mg of sample was placed into a wire mesh vapour sorption balance pan and loaded into a DVS-1 dynamic vapour sorption balance by Surface Measurement Systems. The sample was subjected to a ramping profile from 20-90% relative humidity (RH) at 10% increments, maintaining the sample at each step until a stable weight had been achieved (99.5% step completion). After completion of the sorption cycle, the sample was dried using the same procedure, but all the way down to 0% RH and finally taken back to the starting point of 20% RH. The weight change during the sorption/desorption cycles were plotted, allowing for the hygroscopic nature of the sample to be determined.

The nature of data set [3]: Stability at 40° C./75% RH for 1 week and 2 weeks (XRPD and HPLC). To be noted: open container. Here is the method: Samples of each form were exposed to an environment of 40° C./75% RH for 1 week and 2 week periods to determine stability. Resulting solids were analysed by XRPD and HPLC to establish if any changes had occurred.
Data set [4] is described as follows: XRPD after heating or drying (solid form conversion). As for the experimental part: X-ray powder diffraction (XRPD) analysis was carried out on a Siemens D5000, scanning the samples between 3 and 30 or 50° 2-theta. For samples <100 mg, ca. 5-10 mg of sample was gently compressed onto a glass slide which fitted into the sample holder. For samples >100 mg, ca. 100 mg of sample was gently compressed into a plastic sample holder, so that the sample surface was smooth and just above the level of the sample holder. Measurements were made as follows: In order to determine the relationship between Forms A and B, a sample of Form B was heated to 120° C. and then XRPD analysis was carried out. […] To determine whether Form C remains the same after losing the solvent present, a sample of Form C was heated to 120° C. (i.e., just past the temperature at which the solvent is removed) and then XRPD analysis was carried out. […] In order to determine whether Form E remains the same after losing the solvent present, a sample of Form E was heated to 120° C. (i.e., just past the temperature at which the solvent is lost) and then XRPD analysis was carried out. […] In order to determine whether Form F remains the same after losing the solvent present, a sample of Form F was heated to 120° C. (i.e., just past the temperature at which the solvent is lost) and then XRPD analysis was carried out. […] To examine whether Form H changes to Form A after heating to 115° C. (point after the solvent loss), the Form H material was heated to 115° C. and XRPD analysis and DSC analysis were then carried out. […] The DSC analysis (FIG. 49) indicated overlapping endotherms between ca. 115-135° C., followed by an exotherm at peak 143.9° C., likely indicating a polymorphic transition. A final endotherm was present at onset 202.7° C. (peak 206.6° C.) corresponding with the Form A melt.

Where [5] appears, read: ambient under vacuum 7 days, then 2 days at 40° C.

“Also recorded” adds a separate entry of the source.

Consider `C=CC(=O)Nc1cccc(Nc2nc(Nc3ccc(N4CCN(C(C)=O)CC4)cc3OC)ncc2C(F)(F)F)c1` [Form B, N-(3-(2-(4-(4-acetylpiperazin-1-yl)-2-methoxyphenylamino)-5-(trifluoromethyl)pyrimidin-4-ylamino)phenyl)acrylamide], for which, in data set [1], the “detection by HPLC analysis for the aqueous solubility” value (“detection by HPLC analysis” for short) was “could not be detected” and the aqueous solubility result was “poor”. In data set [2], the “Post DVS XRPD (solid form)” value is on record as “remained Form B”, the “hygroscopicity (DVS)” value is recorded as “non-hygroscopic” and the DVS water uptake came out at 0.74%. Moreover, in data set [3] (1 week), the “HPLC purity after storage” value is given as “ca. 96.8%” and the “XRPD analysis after storage” value is recorded as “predominantly amorphous”. Moreover, in data set [3] (2 week), the “HPLC purity after storage” value is listed as “ca. 95.9%” and the “XRPD analysis after storage” value is listed as “predominantly amorphous”. In addition, in data set [4] (heated to 120° C.), the XRPD after heating entry is “mixture of Form B and Form A”. Moreover, the XRPD after heating result in data set [4] (heated to 160° C.) is “converted predominantly to Form A”.
`C=CC(=O)Nc1cccc(Nc2nc(Nc3ccc(N4CCN(C(C)=O)CC4)cc3OC)ncc2C(F)(F)F)c1` [Form C, N-(3-(2-(4-(4-acetylpiperazin-1-yl)-2-methoxyphenylamino)-5-(trifluoromethyl)pyrimidin-4-ylamino)phenyl)acrylamide]: in data set [1], the “detection by HPLC analysis” value is given as “could not be detected” and the aqueous solubility entry was “poor”. In data set [2], the DVS analysis observation entry is “contain solvent, which is lost as the relative humidity is increased” and the “Post DVS XRPD (solid form)” value was “converted to Form A”. Moreover, in data set [3] (1 week), the “HPLC purity after storage” value is on record as “ca. 97.1%” and the “XRPD analysis after storage” value was “converted to Form A with some loss in crystallinity”. In addition, in data set [3] (2 week), the “HPLC purity after storage” value is given as “ca. 96.8%” and the “XRPD analysis after storage” value is listed as “poorly crystalline with the peaks present corresponding with Form A”. Further, in data set [4] (setting [5]), the XRPD after drying entry is “some loss in crystallinity and converted to Form A”. The XRPD after heating entry in data set [4] (heated to 120° C.) is “converted to Form A”.
Turning to `C=CC(=O)Nc1cccc(Nc2nc(Nc3ccc(N4CCN(C(C)=O)CC4)cc3OC)ncc2C(F)(F)F)c1` [Form D, N-(3-(2-(4-(4-acetylpiperazin-1-yl)-2-methoxyphenylamino)-5-(trifluoromethyl)pyrimidin-4-ylamino)phenyl)acrylamide], in data set [1], the “detection by HPLC analysis” value is reported as “could not be detected” and the aqueous solubility result is “extremely poor”. Moreover, in data set [2], the DVS analysis observation result is “contain solvent which is lost as the relative humidity is increased” and the “Post DVS XRPD (solid form)” value was “converted completely to Form B”. In data set [3] (1 week), the “HPLC purity after storage” value is “ca. 96.5%” and the “XRPD analysis after storage” value is “converted completely to Form B with some loss in crystallinity”. In data set [3] (2 week), the “HPLC purity after storage” value is “ca. 95.5%” and the “XRPD analysis after storage” value was “poorly crystalline with the peaks present corresponding with Form B”.
On to `C=CC(=O)Nc1cccc(Nc2nc(Nc3ccc(N4CCN(C(C)=O)CC4)cc3OC)ncc2C(F)(F)F)c1` [Form E, N-(3-(2-(4-(4-acetylpiperazin-1-yl)-2-methoxyphenylamino)-5-(trifluoromethyl)pyrimidin-4-ylamino)phenyl)acrylamide], for which, in data set [1], the “detection by HPLC analysis” value is “could not be detected” and the aqueous solubility result is given as “extremely poor”. In data set [2], the “Post DVS XRPD (solid form)” value is given as “converted to Form A” and the DVS water uptake came to 0.25%. Besides, in data set [3] (1 week), the “HPLC purity after storage” value is “ca. 97.7%” and the “XRPD analysis after storage” value is reported as “predominantly amorphous with visible peaks present corresponding with Form A”. Also, in data set [3] (2 week), the “HPLC purity after storage” value is listed as “ca. 97.3%” and the “XRPD analysis after storage” value is given as “predominantly amorphous with visible peaks present corresponding with Form A”. Further, in data set [4] (setting [5]), the XRPD after drying result is “lost some crystallinity and converted to Form A”. For the same compound, the XRPD after heating result in data set [4] (heated to 120° C.) is reported as “converted to Form A”.
In the case of `C=CC(=O)Nc1cccc(Nc2nc(Nc3ccc(N4CCN(C(C)=O)CC4)cc3OC)ncc2C(F)(F)F)c1` [Form F, N-(3-(2-(4-(4-acetylpiperazin-1-yl)-2-methoxyphenylamino)-5-(trifluoromethyl)pyrimidin-4-ylamino)phenyl)acrylamide], in data set [1], the “detection by HPLC analysis” value was “could not be detected; also recorded: below the limit of quantification” and the aqueous solubility entry is reported as “poor”. In addition, in data set [2], the DVS analysis observation entry was “contain solvent, which is lost as the relative humidity is increased” and the “Post DVS XRPD (solid form)” value is on record as “converted predominantly to Form A (traces of Form F remaining)”. In addition, in data set [3] (1 week), the “HPLC purity after storage” value is “ca. 96.8%” and the “XRPD analysis after storage” value was “converted to Form A, with some loss in crystallinity”. Also, in data set [3] (2 week), the “HPLC purity after storage” value is listed as “ca. 96.3%” and the “XRPD analysis after storage” value was “partially crystalline with peaks present corresponding with Form A”. The XRPD after drying entry in data set [4] (setting [5]) is “lost some crystallinity and converted predominantly to Form A”. Also, the XRPD after heating result in data set [4] (heated to 120° C.) was “converted predominantly to Form A”.
Regarding `C=CC(=O)Nc1cccc(Nc2nc(Nc3ccc(N4CCN(C(C)=O)CC4)cc3OC)ncc2C(F)(F)F)c1` [Form G, N-(3-(2-(4-(4-acetylpiperazin-1-yl)-2-methoxyphenylamino)-5-(trifluoromethyl)pyrimidin-4-ylamino)phenyl)acrylamide], the aqueous solubility entry in data set [1] is on record as “poor”. Moreover, the DVS analysis observation result in data set [2] is “contain significant amounts of solvent that are lost as the relative humidity is increased”. In addition, the “Post DVS XRPD (solid form)” value in data set [2] is listed as “converted to Form A”. Further, the entries for the “HPLC purity after storage” value in data set [3] (1 week) and in data set [3] (2 week) were “ca. 96.8%” and “ca. 96.2%”, respectively. Besides, the “XRPD analysis after storage” value in data set [3] (1 week) is on record as “converted predominantly to Form A, with some loss in crystallinity”; in data set [3] (2 week), “converted predominantly to Form A, with some loss in crystallinity”. The XRPD after drying result in data set [4] (80° C. for 4 days) and in data set [4] (setting [5]) was “converted to Form A” each time.

These data come from patent US10946016B2, “Solid forms of an epidermal growth factor receptor kinase inhibitor” (Celgene CAR LLC, priority 2012, dated 2021).
